According to PubChem BioAssay AID1259411 (Chemical Carcinogenesis Research Information System (CCRIS), 2018):
Active and inactive are the calls of the source. How the calls were made is not given here.

Tested on: rodent carcinogenicity bioassays, tumor incidence
Assay: CCRIS carcinogenicity studies
Summary of the method: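 NCI-built, expert-reviewed records of carcinogenicity and related test outcomes (mutagenicity, tumor promotion/inhibition) compiled from published and report sources, historical span 1985-2011, not updated.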

## Cc1ccc2ncccc2c1
Species: RAT, Strain/Sex: F344/MALE,FEMALE, Route: ORAL, Dose: 0.05% IN DIET FOR 2 YR
  carcinogen call: inactive; negative

## CC(C)=CCC/C(C)=C/C=C/C(C)=C/C=C/C(C)=C/C=C/C=C(C)/C=C/C=C(C)/C=C/C=C(\C)CCC=C(C)C
Species: MOUSE, Strain/Sex: C57BL/6J/MALE, Route: ORAL, Dose: 0, 50, 200 PPM IN DRINKING WATER FOR 80 WK (STUDY DURATION: 80 WK), Dose: 0, 50, 200 PPM IN DRINKING WATER FOR 80 WK (STUDY DURATION: 80 WK)
  carcinogen call: inactive; negative

## O=C(O)CCCC/C=C(\c1ccccc1)c1cccnc1
Species: MOUSE, Strain/Sex: CD-1/FEMALE, Route: ORAL, Dose: 0, 10, 30, 100, 300 MG/KG/D IN DIET FOR 2 YR (STUDY DURATION: 2 YR), Dose: 0, 10, 30, 100, 300 MG/KG/D IN DIET FOR 2 YR (STUDY DURATION: 2 YR)
  carcinogen call: inactive; negative
Species: MOUSE, Strain/Sex: CD-1/MALE, Route: ORAL, Dose: 0, 10, 30, 100, 300 MG/KG/D IN DIET FOR 2 YR (STUDY DURATION: 2 YR), Dose: 0, 10, 30, 100, 300 MG/KG/D IN DIET FOR 2 YR (STUDY DURATION: 2 YR)
  carcinogen call: inactive; negative
Species: RAT, Strain/Sex: STRAIN-CD/FEMALE, Route: ORAL, Dose: 0, 10, 30, 100 MG/KG/D IN DIET FOR 2 YR (STUDY DURATION: 2 YR), Dose: 0, 10, 30, 100 MG/KG/D IN DIET FOR 2 YR (STUDY DURATION: 2 YR)
  carcinogen call: inactive; negative
Species: RAT, Strain/Sex: STRAIN-CD/MALE, Route: ORAL, Dose: 0, 10, 30, 100 MG/KG/D IN DIET FOR 2 YR (STUDY DURATION: 2 YR), Dose: 0, 10, 30, 100 MG/KG/D IN DIET FOR 2 YR (STUDY DURATION: 2 YR)
  carcinogen call: inactive; negative

## O[C@@H]1C=CC=C[C@H]1O
Species: MOUSE, Strain/Sex: SWISS/FEMALE, Route: INTRAPERITONEAL, Dose: 0, 10, 50 UMOL ADMINISTERED AS 3 UNEQUAL DOSES (1/7, 2/7, AND 4/7 OF THE TOTAL DOSE) OVER A 2-WK PERIOD (STUDY DURATION:, Dose: 0, 10, 50 UMOL ADMINISTERED AS 3 UNEQUAL DOSES (1/7, 2/7, AND 4/7 OF THE TOTAL DOSE) OVER A 2-WK PERIOD (STUDY DURATION:
  carcinogen call: inactive; negative
Species: MOUSE, Strain/Sex: SWISS/MALE, Route: INTRAPERITONEAL, Dose: 0, 10, 50 UMOL ADMINISTERED AS 3 UNEQUAL DOSES (1/7, 2/7, AND 4/7 OF THE TOTAL DOSE) OVER A 2-WK PERIOD (STUDY DURATION:, Dose: 0, 10, 50 UMOL ADMINISTERED AS 3 UNEQUAL DOSES (1/7, 2/7, AND 4/7 OF THE TOTAL DOSE) OVER A 2-WK PERIOD (STUDY DURATION:
  carcinogen call: inactive; negative

## Clc1cccc(-c2cc(Cl)cc(Cl)c2)c1
Species: RAT, Strain/Sex: SPRAGUE-DAWLEY/FEMALE, Route: ORAL, Dose: 0, 50, 100, 200 PPM IN DIET FOR THE DURATION OF STUDY (STUDY DURATION: 24 MO), Dose: 0, 50, 100, 200 PPM IN DIET FOR THE DURATION OF STUDY (STUDY DURATION: 24 MO), Tumor Site: Type of Lesion: LIVER: TUMOR
  carcinogen call: active; positive
Species: RAT, Strain/Sex: SPRAGUE-DAWLEY/MALE, Route: ORAL, Dose: 0, 50, 100, 200 PPM IN DIET FOR THE DURATION OF STUDY (STUDY DURATION: 24 MO), Dose: 0, 50, 100, 200 PPM IN DIET FOR THE DURATION OF STUDY (STUDY DURATION: 24 MO)
  carcinogen call: inactive; negative

## CC1(C)[C@@H](O[C@H]2O[C@H](C(=O)O)[C@@H](O)[C@H](O)[C@H]2O[C@@H]2O[C@H](C(=O)O)[C@@H](O)[C@H](O)[C@H]2O)CC[C@]2(C)[C@H]3C(=O)C=C4[C@@H]5C[C@@](C)(C(=O)O)CC[C@]5(C)CC[C@@]4(C)[C@]3(C)CC[C@@H]12
Species: MOUSE, Strain/Sex: B6C3F1/FEMALE, Route: ORAL, Dose: 0, 0.08, 0.15, 0.3% IN DRINKING WATER FOR 96 WK (STUDY DURATION: 110 WK), Dose: 0, 0.08, 0.15, 0.3% IN DRINKING WATER FOR 96 WK (STUDY DURATION: 110 WK)
  carcinogen call: inactive; negative
Species: MOUSE, Strain/Sex: B6C3F1/MALE, Route: ORAL, Dose: 0, 0.04, 0.08, 0.15% IN DRINKING WATER FOR 96 WK (STUDY DURATION: 110 WK), Dose: 0, 0.04, 0.08, 0.15% IN DRINKING WATER FOR 96 WK (STUDY DURATION: 110 WK)
  carcinogen call: inactive; negative

## C[C@]12CC[C@@H]3c4ccc(O)c(O)c4CC[C@H]3[C@@H]1CC[C@@H]2O
Species: MOUSE, Strain/Sex: CD-1/FEMALE, Route: SUBCUTANEOUS, Dose: 0, 2 UG/D IN CORN OIL ON DAYS 1-5 OF LIFE (STUDY DURATION: 12-18 WK), Tumor Site: Type of Lesion: UTERUS: ADENOCARCINOMA
  carcinogen call: active; positive
Species: Mouse, Strain/Sex: CD-1/Female (45/experimental group; 40/control group), Route: Subcutaneous, Dose: 0, 2 ug in peanut oil, dosed on days 1-5 of life and retained for 1.5 (4 animals), 3 (4 animals), 6 (4 animals), 9 (4 an, Dose: 0, 2 ug in peanut oil, dosed on days 1-5 of life and retained for 1.5 (4 animals), 3 (4 animals), 6 (4 animals), 9 (4 an, Tumor Site: Type of Lesion: Uterus and ovaries examined
  carcinogen call: inactive; negative; nonneoplastic changes observed

## O=CCC=O
Species: MOUSE, Strain/Sex: B6C3F1/FEMALE, Route: GAVAGE, Dose: 0, 60, 120 MG/KG IN DISTILLED WATER 5D/WK FOR 102 WK (STUDY DURATION: 105 WK), Dose: 0, 60, 120 MG/KG IN DISTILLED WATER 5D/WK FOR 102 WK (STUDY DURATION: 105 WK)
  carcinogen call: inactive; negative
Species: MOUSE, Strain/Sex: B6C3F1/FEMALE, Route: INTRAPERITONEAL, Dose: 0, 1500 NMOL TOTAL DOSE, 1/3 AND 2/3 OF THE TOTAL DOSE ADMINISTERED AT 8 AND 15 DAYS OF AGE RESPECTIVELY, ANIMALS TERMIN
  carcinogen call: inactive; negative
Species: MOUSE, Strain/Sex: B6C3F1/FEMALE, Route: INTRAPERITONEAL, Dose: 0, 3000 NMOL TOTAL DOSE, 1/3 AND 2/3 OF THE TOTAL DOSE ADMINISTERED AT 8 AND 15 DAYS OF AGE RESPECTIVELY, ANIMALS TERMIN
  carcinogen call: inactive; negative
Species: MOUSE, Strain/Sex: B6C3F1/MALE, Route: GAVAGE, Dose: 0, 60, 120 MG/KG IN DISTILLED WATER 5D/WK FOR 102 WK (STUDY DURATION: 104 WK), Dose: 0, 60, 120 MG/KG IN DISTILLED WATER 5D/WK FOR 102 WK (STUDY DURATION: 104 WK)
  carcinogen call: inactive; negative
Species: MOUSE, Strain/Sex: B6C3F1/MALE, Route: INTRAPERITONEAL, Dose: 0, 1500 NMOL TOTAL DOSE, 1/3 AND 2/3 OF THE TOTAL DOSE ADMINISTERED AT 8 AND 15 DAYS OF AGE RESPECTIVELY, ANIMALS TERMIN
  carcinogen call: inactive; negative
Species: MOUSE, Strain/Sex: B6C3F1/MALE, Route: INTRAPERITONEAL, Dose: 0, 3000 NMOL TOTAL DOSE, 1/3 AND 2/3 OF THE TOTAL DOSE ADMINISTERED AT 8 AND 15 DAYS OF AGE RESPECTIVELY, ANIMALS TERMIN
  carcinogen call: inactive; negative
Species: RAT, Strain/Sex: F344/FEMALE, Route: GAVAGE, Dose: 0, 50, 100 MG/KG IN DISTILLED WATER 5D/WK FOR 102 WK (STUDY DURATION: 105 WK), Dose: 0, 50, 100 MG/KG IN DISTILLED WATER 5D/WK FOR 102 WK (STUDY DURATION: 105 WK), Tumor Site: Type of Lesion: THYROID GLAND: FOLLICULAR CELL ADENOMA, THYROID GLAND: FOLLICULAR CELL ADENOMA OR CARCINOMA
  carcinogen call: active; positive
Species: RAT, Strain/Sex: F344/MALE, Route: GAVAGE, Dose: 0, 50, 100 MG/KG IN DISTILLED WATER 5D/WK FOR 102 WK (STUDY DURATION: 104 WK), Dose: 0, 50, 100 MG/KG IN DISTILLED WATER 5D/WK FOR 102 WK (STUDY DURATION: 104 WK), Tumor Site: Type of Lesion: THYROID GLAND: FOLLICULAR CELL ADENOMA OR CARCINOMA, PANCREATIC ISLETS: ISLET CELL ADENOMA, PANCREATIC ISLETS: ISLET CEL, Tumor Site: Type of Lesion: THYROID GLAND: FOLLICULAR CELL ADENOMA OR CARCINOMA, PANCREATIC ISLETS: ISLET CELL ADENOMA, PANCREATIC ISLETS: ISLET CEL
  carcinogen call: active; positive

## Cc1c(C)c2c3c(ccc2c2ccccc12)[C@@H](O)[C@H](O)[C@@H]1O[C@H]31
Species: MOUSE, Strain/Sex: ICR/FEMALE, Route: INTRAPERITONEAL, Dose: 0, 8 NMOL IN 5 µL DMSO TO PUPS ON D 1/OF LIFE THEN 16 NMOL IN 10 µL ON D 8 AND 3 NMOL IN 20 µL D 15 (STUDY DURATION: 35, Tumor Site: Type of Lesion: LUNG: TUMOR
  carcinogen call: active; positive
Species: MOUSE, Strain/Sex: ICR/MALE, Route: INTRAPERITONEAL, Dose: 0, 8 NMOL IN 5 µL DMSO TO PUPS ON D 1/OF LIFE THEN 16 NMOL IN 10 µL ON D 8 AND 3 NMOL IN 20 µL ON D 15 (STUDY DURATION:, Tumor Site: Type of Lesion: LUNG: TUMOR, LIVER: TUMOR
  carcinogen call: active; positive
